Measurements published in patent publication US20240059671A1, “TYROSINE KINASE 2 (TYK2) DEGRADATION COMPOUNDS AND METHODS OF USE” (CULLGEN (SHANGHAI), INC., priority 2020, published 2024).

How the values were obtained:
[1] = biological target: T1, TYK2 (Homo sapiens, UniProt P29597); experiment: TYK2 protein degradation in NOMO-1 cells by immunoblotting; format: cell-based; design: endogenous in cells; conditions: NOMO-1 cells
Experimental: NOMO-1 cells were treated with CPD-155, CPD-157, and CPD-158 at 0.1, 1, 10, 100 and 1000 nM concentrations for 16 hours. […] Data shown that CPD-155, CPD-157, and CPD-158 are very potent at the reduction protein levels of TYK2.
MOLT-4 or NOMO-1 cells were cultured at 37° C. with 5% CO2 in RPMI 1640 Medium supplemented with 10% fetal bovine serum. Cells were authenticated using the short tandem repeat (STR) assays. Mycoplasma test results were negative.
Cultured cells were washed with cold PBS once and lysed in cold RIPA buffer supplemented with protease inhibitors and phosphatase inhibitors (Beyotime Biotechnology). The solutions were then incubated at 4° C. for 30 minutes with gentle agitation to fully lyse cells. Cell lysates were centrifuged at 13,000 rpm for 10 minutes at 4° C. and pellets were discarded. Total protein concentrations in the lysates were determined by BCA assays (Beyotime Biotechnology). Cell lysates were mixed with Laemmli loading buffer to 1× and heated at 99° C. for 5 min. Proteins were resolved on SDS-PAGE and visualized by chemiluminescence. Images were taken by a ChemiDoc MP Imaging system (Bio-Rad). Protein bands were quantitated using the accompanied software provided by Bio-Rad.

[2] = biological target: T1, TYK2; experiment: TYK2 protein degradation in MOLT-4 cells by immunoblotting; format: cell-based; design: endogenous in cells; host or cells: MOLT-4; conditions: MOLT-4 cells, 24 hours
In short: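 Percent TYK2 degradation came from densitometry of chemiluminescent immunoblots of RIPA lysates. Before lysis, MOLT-4 cells had been treated for 24 h with each compound at 0.5 or 5 μM.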

T1 sequence (P29597 whole entry): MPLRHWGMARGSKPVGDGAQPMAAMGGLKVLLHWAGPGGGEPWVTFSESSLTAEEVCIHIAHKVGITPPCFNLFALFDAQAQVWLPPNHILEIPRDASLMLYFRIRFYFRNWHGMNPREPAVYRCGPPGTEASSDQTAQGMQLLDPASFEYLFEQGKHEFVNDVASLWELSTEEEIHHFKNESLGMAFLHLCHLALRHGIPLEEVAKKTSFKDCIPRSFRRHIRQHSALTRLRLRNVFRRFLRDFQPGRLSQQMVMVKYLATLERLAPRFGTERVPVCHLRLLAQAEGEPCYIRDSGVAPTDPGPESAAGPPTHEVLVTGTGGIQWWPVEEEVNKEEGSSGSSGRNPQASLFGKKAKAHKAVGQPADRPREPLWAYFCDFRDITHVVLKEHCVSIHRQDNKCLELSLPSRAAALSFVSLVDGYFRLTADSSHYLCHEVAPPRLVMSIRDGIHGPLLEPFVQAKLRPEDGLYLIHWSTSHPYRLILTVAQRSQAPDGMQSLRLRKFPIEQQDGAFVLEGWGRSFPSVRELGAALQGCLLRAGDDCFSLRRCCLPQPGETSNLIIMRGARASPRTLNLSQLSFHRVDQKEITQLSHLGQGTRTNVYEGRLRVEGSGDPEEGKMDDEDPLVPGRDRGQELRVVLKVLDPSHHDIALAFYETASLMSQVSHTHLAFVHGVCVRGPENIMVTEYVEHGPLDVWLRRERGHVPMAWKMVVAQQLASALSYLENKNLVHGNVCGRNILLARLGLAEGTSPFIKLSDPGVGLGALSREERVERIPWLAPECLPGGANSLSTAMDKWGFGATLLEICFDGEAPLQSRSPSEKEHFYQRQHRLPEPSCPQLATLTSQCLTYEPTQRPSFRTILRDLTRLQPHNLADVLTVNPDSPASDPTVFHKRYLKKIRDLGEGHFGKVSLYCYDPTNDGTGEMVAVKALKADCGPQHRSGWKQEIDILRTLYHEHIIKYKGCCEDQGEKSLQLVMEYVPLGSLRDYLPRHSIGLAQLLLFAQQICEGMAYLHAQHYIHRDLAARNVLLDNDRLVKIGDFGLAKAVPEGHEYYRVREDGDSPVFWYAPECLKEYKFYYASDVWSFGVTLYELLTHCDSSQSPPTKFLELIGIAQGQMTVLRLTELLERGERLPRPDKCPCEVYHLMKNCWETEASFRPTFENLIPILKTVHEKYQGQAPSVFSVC

| Structure (SMILES) | TYK2 Degradation (NOMO-1, 10 nM) [1] | TYK2 Degradation (NOMO-1, 100 nM) [1] | TYK2 Degradation (0.5 μM) [2] | TYK2 Degradation (5 μM) [2] |
| --- | --- | --- | --- | --- |
| CNC(=O)c1nnc(Nc2ccc(C#CC3CCN(C(=O)CCC(=O)N[C@H](C(=O)N4C[C@H](O)C[C@H]4C(=O)N[C@@H](C)c4ccc(-c5scnc5C)cc4)C(C)(C)C)CC3)cn2)cc1Nc1cccc(-c2ncn(C)n2)c1OC [CPD-116, 6-((5-((1-(4-(((S)-1-((2S,4R)-4-Hydroxy-2-(((S)-1-(4-(4-methylthiazol-5-yl)phenyl)ethyl)carbamoyl)pyrrolidin-1-yl)-3,3-dimethyl-1-oxobutan-2-yl)amino)-4-oxobutanoyl)piperidin-4-yl)ethynyl)pyridin-2-yl)amino)-4-((2-methoxy-3-(1-methyl-1H-1,2,4-triazol-3-yl)phenyl)amino)-N-methylpyridazine-3-carboxamide] | C (C: ≤20% TYK2 degradation) | A (A: ≥60% TYK2 degradation) |  |  |
| CNC(=O)c1nnc(Nc2ccc(N3CCN(C(=O)CCCCCCC(=O)N[C@H](C(=O)N4C[C@H](O)C[C@H]4C(=O)NCc4ccc(C#N)cn4)C(C)(C)C)CC3)cn2)cc1Nc1cccc(-c2ncn(C)n2)c1OC [CDD-172, 6-((5-(4-(8-(((S)-1-((2S,4R)-2-(((5-cyanopyridin-2-yl)methyl)carbamoyl)-4-hydroxypyrrolidin-1-yl)-3,3-dimethyl-1-oxobutan-2-yl)amino)-8-oxooctanoyl)piperazin-1-yl)pyridin-2-yl)amino)-4-((2-methoxy-3-(1-methyl-1H-1,2,4-triazol-3-yl)phenyl)amino)-N-methylpyridazine-3-carboxamide] | C (C: ≤20% TYK2 degradation) | C (C: ≤20% TYK2 degradation) |  |  |
| CNC(=O)c1nnc(Nc2ccc(C#CC3CCN(C(=O)CCCCCCCCC(=O)N[C@H](C(=O)N4C[C@H](O)C[C@H]4C(=O)N[C@@H](C)c4ccc(-c5scnc5C)cc4)C(C)(C)C)CC3)cn2)cc1Nc1cccc(-c2ncn(C)n2)c1OC [CPD-121, 6-((5-((1-(10-(((S)-1-((2S,4R)-4-hydroxy-2-(((5)-1-(4-(4-methylthiazol-5-yl)phenyl)ethyl)carbamoyl)pyrrolidin-1-yl)-3,3-dimethyl-1-oxobutan-2-yl)amino)-10-oxodecanoyl)piperidin-4-yl)ethynyl)pyridin-2-yl)amino)-4-((2-methoxy-3-(1-methyl-1H-1,2,4-triazol-3-yl)phenyl)amino)-N-methylpyridazine-3-carboxamide] | A (A: ≥60% TYK2 degradation) | A (A: ≥60% TYK2 degradation) |  |  |
| CNC(=O)c1nnc(Nc2ccc(C(=O)NCCCCCCNc3cccc4c3C(=O)N(C3CCC(=O)NC3=O)C4=O)cn2)cc1Nc1cccc(-c2ncn(C)n2)c1OC (stereo not drawn) [CPD-156, 6-((5-((6-((2-(2,6-Dioxopiperidin-3-yl)-1,3-dioxoisoindolin-4-yl)amino)hexyl)carbamoyl)pyridin-2-yl)amino)-4-((2-methoxy-3-(1-methyl-1H-1,2,4-triazol-3-yl)phenyl)amino)-N-methylpyridazine-3-carboxamide] |  | B (B: <60% TYK2 degradation, and >20% TYK2 degradation) |  |  |
| CNC(=O)c1nnc(Nc2ccc(N3CCN(CCCCCCCC(=O)N[C@H](C(=O)N4C[C@H](O)C[C@H]4C(=O)N[C@@H](C)c4ccc(-c5scnc5C)cc4)C(C)(C)C)CC3)cn2)cc1Nc1cccc(-c2ncn(C)n2)c1OC [CPD-113, 6-((5-(4-(8-(((S)-1-((2S,4R)-4-Hydroxy-2-(((S)-1-(4-(4-methylthiazol-5-yl)phenyl)ethyl)carbamoyl)pyrrolidin-1-yl)-3,3-dimethyl-1-oxobutan-2-yl)amino)-8-oxooctyl)piperazin-1-yl)pyridin-2-yl)amino)-4-((2-methoxy-3-(1-methyl-1H-1,2,4-triazol-3-yl)phenyl)amino)-N-methylpyridazine-3-carboxamide] | B (B: <60% TYK2 degradation, and >20% TYK2 degradation) | A (A: ≥60% TYK2 degradation) |  |  |
| CNC(=O)c1nnc(Nc2ccc(C(=O)NCCCCCCNc3ccc4c(c3)C(=O)N(C3CCC(=O)NC3=O)C4=O)cn2)cc1Nc1cccc(-c2ncn(C)n2)c1OC (stereo not drawn) [CPD-165, 6-((5-((6-((2-(2,6-dioxopiperidin-3-yl)-1,3-dioxoisoindolin-5-yl)amino)hexyl)carbamoyl)pyridin-2-yl)amino)-4-((2-methoxy-3-(1-methyl-1H-1,2,4-triazol-3-yl)phenyl)amino)-N-methylpyridazine-3-carboxamide] | C (C: ≤20% TYK2 degradation) | C (C: ≤20% TYK2 degradation) |  |  |
| CNC(=O)c1nnc(Nc2ccc(C#CC3CN(C(=O)CCCCCC(=O)N[C@H](C(=O)N4C[C@H](O)C[C@H]4C(=O)N[C@@H](C)c4ccc(-c5scnc5C)cc4)C(C)(C)C)C3)cn2)cc1Nc1cccc(-c2ncn(C)n2)c1OC [CPD-124, 6-((5-((1-(7-(((S)-1-((2S,4R)-4-hydroxy-2-(((S)-1-(4-(4-methylthiazol-5-yl)phenyl)ethyl)carbamoyl)pyrrolidin-1-yl)-3,3-dimethyl-1-oxobutan-2-yl)amino)-7-oxoheptanoyl)azetidin-3-yl)ethynyl)pyridin-2-yl)amino)-4-((2-methoxy-3-(1-methyl-1H-1,2,4-triazol-3-yl)phenyl)amino)-N-methylpyridazine-3-carboxamide] | A (A: ≥60% TYK2 degradation) | A (A: ≥60% TYK2 degradation) |  |  |
| CNC(=O)c1nnc(Nc2ccc(CNC(=O)CCC(=O)N[C@H](C(=O)N3C[C@H](O)C[C@H]3C(=O)N[C@@H](C)c3ccc(-c4scnc4C)cc3)C(C)(C)C)cn2)cc1Nc1cccc(-c2ncn(C)n2)c1OC [CPD-128, N1-((S)-1-((2S,4R)-4-Hydroxy-2-(((S)-1-(4-(4-methylthiazol-5-yl)phenyl)ethyl)carbamoyl)pyrrolidin-1-yl)-3,3-dimethyl-1-oxobutan-2-yl)-N4-((6-((5-((2-methoxy-3-(1-methyl-1H-1,2,4-triazol-3-yl)phenyl)amino)-6-(methylcarbamoyl)pyridazin-3-yl)amino)pyridin-3-yl)methyl)succinamide] |  | C (C: ≤20% TYK2 degradation) |  |  |
| CNC(=O)c1nnc(Nc2ccc(CNC(=O)CCCCCCCC(=O)N[C@H](C(=O)N3C[C@H](O)C[C@H]3C(=O)N[C@@H](C)c3ccc(-c4scnc4C)cc3)C(C)(C)C)cn2)cc1Nc1cccc(-c2ncn(C)n2)c1OC [CPD-132, N1-((S)-1-((2S,4R)-4-Hydroxy-2-(((S)-1-(4-(4-methylthiazol-5-yl)phenyl)ethyl)carbamoyl)pyrrolidin-1-yl)-3,3-dimethyl-1-oxobutan-2-yl)-N9-((6-((5-((2-methoxy-3-(1-methyl-1H-1,2,4-triazol-3-yl)phenyl)amino)-6-(methylcarbamoyl)pyridazin-3-yl)amino)pyridin-3-yl)methyl)nonanediamide] |  | A (A: ≥60% TYK2 degradation) |  |  |
| CNC(=O)c1nnc(NC(=O)CNC(=O)CCOCCOCCOCCOCCNc2cccc3c2C(=O)N(C2CCC(=O)NC2=O)C3=O)cc1Nc1cccc(-c2ncn(C)n2)c1OC (stereo not drawn) [CPD-052, 6-(1-((2-(2,6-Dioxopiperidin-3-yl)-1,3-dioxoisoindolin-4-yl)amino)-15-oxo-3,6,9,12-tetraoxa-16-azaoctadecan-18-amido)-4-((2-methoxy-3-(1-methyl-1H-1,2,4-triazol-3-yl)phenyl)amino)-N-methylpyridazine-3-carboxamide] |  |  | ≤20% | ≤20% |
| CNC(=O)c1nnc(NC(=O)C2CC2)cc1Nc1cccc(-c2ncn(CCNC(=O)CCCC(=O)N[C@H](C(=O)N3C[C@H](O)C[C@H]3C(=O)NCc3ccc(-c4scnc4C)cc3)C(C)(C)C)n2)c1OC [CPD-076, N^1-(2-(3-(3-((6-(Cyclopropanecarboxamido)-3-(methylcarbamoyl)pyridazin-4-yl)amino)-2-methoxyphenyl)-1H-1,2,4-triazol-1-yl)ethyl)-N^5-((S)-1-((2S,4R)-4-hydroxy-2-((4-(4-methylthiazol-5-yl)benzyl)carbamoyl)pyrrolidin-1-yl)-3,3-dimethyl-1-oxobutan-2-yl)glutaramide] |  |  | ≤20% | ≤20% |
| CNC(=O)c1nnc(NC(=O)CNC(=O)CCOCCNc2ccc3c(c2)C(=O)N(C2CCC(=O)NC2=O)C3=O)cc1Nc1cccc(-c2ncn(C)n2)c1OC (stereo not drawn) [CPD-061, 6-(2-(3-(2-((2-(2,6-Dioxopiperidin-3-yl)-1,3-dioxoisoindolin-5-yl)amino)ethoxy)propanamido)acetamido)-4-((2-methoxy-3-(1-methyl-1H-1,2,4-triazol-3-yl)phenyl)amino)-N-methylpyridazine-3-carboxamide] |  |  | ≤20% | ≤20% |
